Consider 18 compounds from patent publication US20260226068A1, “IMIDAZOTRIAZINE IL-17A MODULATORS AND USES THEREOF” (DICE ALPHA, INC., priority 2023, published 2026).

The target in one experiment is T1, IL-17A/A (Homo sapiens, UniProt Q16552).
T1 construct: purchased Genscript Z03228
T1 sequence (Q16552 24-155): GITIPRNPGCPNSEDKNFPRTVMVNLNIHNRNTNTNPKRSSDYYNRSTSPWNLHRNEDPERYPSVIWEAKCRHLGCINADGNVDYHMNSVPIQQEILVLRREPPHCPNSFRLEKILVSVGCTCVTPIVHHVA
As to the kind of experiment: IL-17A/A HEK-Blue cell assay (SEAP reporter). In kind it is cell-based. Conditions: HEK-Blue IL-17A reporter cells, IL17A/A 5 ng/mL, 20 hours, SEAP read at A630; read-out: HEK-Blue IL17AA (IC50 for IL-17A/A inhibition).

The target in a further experiment is T2, IL-17A/F (Homo sapiens, UniProt Q16552+Q96PD4).
T2 construct: purchased R&D Systems
T2 sequence (Q16552 24-155): T1 sequence (Q16552 24-155)
T2 sequence (Q96PD4 31-163): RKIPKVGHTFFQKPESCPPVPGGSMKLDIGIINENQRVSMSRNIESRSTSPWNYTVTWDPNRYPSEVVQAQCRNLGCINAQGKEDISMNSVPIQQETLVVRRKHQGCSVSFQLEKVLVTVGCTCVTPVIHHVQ
In words: IL-17A/F HEK-Blue cell assay (SEAP reporter). The format is cell-based. Conditions: HEK-Blue IL-17A reporter cells, IL17A/F 5 ng/mL, 20 hours, SEAP read at A630; read-out: HEK-Blue IL17AF (IC50 for IL-17A/F inhibition).

With `CCn1nccc1C(=O)N[C@H](c1cn2nc(C[C@H]3C[C@@H](C(F)(F)F)CNC3=O)c(N3CCOC(C)(C)C3)nc2n1)C1CCC(F)(F)CC1` [Compound 365, N—((S)-(4,4-difluorocyclohexyl)(3-(2,2-dimethylmorpholino)-2-(((3R,5R)-2-oxo-5-(trifluoromethyl)piperidin-3-yl)methyl)imidazo[1,2-b][1,2,4]triazin-6-yl)methyl)-1-ethyl-1H-pyrazole-5-carboxamide], the results for the IC50 on IL-17A/A and at IL-17A/F were less than 100 nM and 100 to 1000 nM, respectively.

For `CCn1nccc1C(=O)N[C@H](c1cn2nc(C[C@H]3C[C@@H](C(F)(F)F)CNC3=O)c(N3CCN4CCOC[C@@H]4C3)nc2n1)C1CCC(F)(F)CC1` [Compound 366, N—((S)-(4,4-difluorocyclohexyl)(3-((S)-hexahydropyrazino[2,1-c][1,4]oxazin-8(1H)-yl)-2-(((3R,5R)-2-oxo-5-(trifluoromethyl)piperidin-3-yl)methyl)imidazo[1,2-b][1,2,4]triazin-6-yl)methyl)-1-ethyl-1H-pyrazole-5-carboxamide], the IC50 on IL-17A/A and at IL-17A/F was less than 100 nM in each case.

For `CCn1nccc1C(=O)N[C@H](c1cn2nc(C[C@H]3C[C@@H](C(F)(F)F)CNC3=O)c(N3CCN4CCCC[C@@H]4C3)nc2n1)C1CCC(F)(F)CC1` [Compound 367, N—((S)-(4,4-difluorocyclohexyl)(3-((R)-octahydro-2H-pyrido[1,2-a]pyrazin-2-yl)-2-(((3R,5R)-2-oxo-5-(trifluoromethyl)piperidin-3-yl)methyl)imidazo[1,2-b][1,2,4]triazin-6-yl)methyl)-1-ethyl-1H-pyrazole-5-carboxamide], the IC50 on IL-17A/A and on IL-17A/F was less than 100 nM throughout.

As for `CCn1nccc1C(=O)N[C@H](c1cn2nc(C[C@H]3C[C@@H](C(F)(F)F)CNC3=O)c(N3CCN4CCC[C@@H]4C3)nc2n1)C1CCC(F)(F)CC1` [Compound 368, N—((S)-(4,4-difluorocyclohexyl)(3-((R)-hexahydropyrrolo[1,2-a]pyrazin-2(1H)-yl)-2-(((3R,5R)-2-oxo-5-(trifluoromethyl)piperidin-3-yl)methyl)imidazo[1,2-b][1,2,4]triazin-6-yl)methyl)-1-ethyl-1H-pyrazole-5-carboxamide], the IC50 on IL-17A/A was less than 100 nM; on IL-17A/F, 100 to 1000 nM.

As for `CCn1nccc1C(=O)N[C@H](c1cn2nc(C[C@H]3C[C@@H](C(F)(F)F)CNC3=O)c(C3CCCCN3CCOC)nc2n1)C1CCC(F)(F)CC1` (stereo partly drawn) [Compound 369, N-((1S)-(4,4-difluorocyclohexyl)(3-(1-(2-methoxyethyl)piperidin-2-yl)-2-(((3R,5R)-2-oxo-5-(trifluoromethyl)piperidin-3-yl)methyl)imidazo[1,2-b][1,2,4]triazin-6-yl)methyl)-1-ethyl-1H-pyrazole-5-carboxamide], the IC50 at IL-17A/A was 100 to 1000 nM; on IL-17A/F, more than 1000 nM.

Regarding `CCn1nccc1C(=O)N[C@H](c1cn2nc(C[C@H]3C[C@@H](C(F)(F)F)CNC3=O)c(C3CCN(CCOC)C3)nc2n1)C1CCC(F)(F)CC1` (stereo partly drawn) [Compound 370, N-((1S)-(4,4-difluorocyclohexyl)(3-(1-(2-methoxyethyl)pyrrolidin-3-yl)-2-(((3R,5R)-2-oxo-5-(trifluoromethyl)piperidin-3-yl)methyl)imidazo[1,2-b][1,2,4]triazin-6-yl)methyl)-1-ethyl-1H-pyrazole-5-carboxamide], the IC50 at IL-17A/A was 100 to 1000 nM; at IL-17A/F it was more than 1000 nM.

On to `CCn1nccc1C(=O)N[C@H](c1cn2nc(C[C@H]3C[C@@H](C(F)(F)F)CNC3=O)c(CN3CCC(F)CC3)nc2n1)C1CCC(F)(F)CC1` [Compound 371, N—((S)-(4,4-difluorocyclohexyl)(3-((4-fluoropiperidin-1-yl)methyl)-2-(((3R,5R)-2-oxo-5-(trifluoromethyl)piperidin-3-yl)methyl)imidazo[1,2-b][1,2,4]triazin-6-yl)methyl)-1-ethyl-1H-pyrazole-5-carboxamide], for which the values for the IC50 on IL-17A/A and at IL-17A/F were less than 100 nM and 100 to 1000 nM, respectively.

As for `O=C(N[C@H](c1cn2nc(C[C@H]3C[C@@H](C(F)(F)F)CNC3=O)c(C3CCOCC3)nc2n1)C1CCC(F)(F)CC1)c1nonc1OCC(F)(F)F` [Compound 372, N—((S)-(4,4-difluorocyclohexyl)(2-(((3R,5R)-2-oxo-5-(trifluoromethyl)piperidin-3-yl)methyl)-3-(tetrahydro-2H-pyran-4-yl)imidazo[1,2-b][1,2,4]triazin-6-yl)methyl)-4-(2,2,2-trifluoroethoxy)-1,2,5-oxadiazole-3-carboxamide], the IC50 on IL-17A/A was less than 100 nM; on IL-17A/F, 100 to 1000 nM.

For `O=C(N[C@H](c1cn2nc(C[C@H]3C[C@@H](C(F)(F)F)CNC3=O)c(C3CCOCC3)nc2n1)C1CCC(F)(F)CC1)c1nonc1CN1CC(F)C1` [Compound 373, N—((S)-(4,4-difluorocyclohexyl)(2-(((3R,5R)-2-oxo-5-(trifluoromethyl)piperidin-3-yl)methyl)-3-(tetrahydro-2H-pyran-4-yl)imidazo[1,2-b][1,2,4]triazin-6-yl)methyl)-4-((3-fluoroazetidin-1-yl)methyl)-1,2,5-oxadiazole-3-carboxamide], the IC50 at IL-17A/A was less than 100 nM; at IL-17A/F, 100 to 1000 nM.

Consider `CCn1nccc1C(=O)N[C@H](c1cn2nc(C[C@H]3C[C@@H](C(F)(F)F)CNC3=O)c(CN3CCOCC3)nc2n1)[C@H]1CC[C@H](C)CC1` [Compound 374, 1-ethyl-N—((S)-((1r,4S)-4-methylcyclohexyl)(3-(morpholinomethyl)-2-(((3R,5R)-2-oxo-5-(trifluoromethyl)piperidin-3-yl)methyl)imidazo[1,2-b][1,2,4]triazin-6-yl)methyl)-1H-pyrazole-5-carboxamide], for which the IC50 at IL-17A/A is less than 100 nM; at IL-17A/F, 100 to 1000 nM.

As for `CCn1nccc1C(=O)N[C@H](c1cn2nc(C[C@H]3C[C@@H](C(F)(F)F)CNC3=O)c(CN3CCC(F)(F)C3)nc2n1)[C@H]1CC[C@H](C)CC1` [Compound 375, N—((S)-(3-((3,3-difluoropyrrolidin-1-yl)methyl)-2-(((3R,5R)-2-oxo-5-(trifluoromethyl)piperidin-3-yl)methyl)imidazo[1,2-b][1,2,4]triazin-6-yl)((1r,4S)-4-methylcyclohexyl)methyl)-1-ethyl-1H-pyrazole-5-carboxamide], the IC50 is less than 100 nM on IL-17A/A and 100 to 1000 nM on IL-17A/F.

Turning to `Cn1nccc1C(=O)N[C@H](c1cn2nc(C[C@H]3C[C@@H](C(F)(F)F)CNC3=O)c(CC3COC3)nc2n1)C1CCCCCC1` [Compound 377, N—((S)-cycloheptyl(3-(oxetan-3-ylmethyl)-2-(((3R,5R)-2-oxo-5-(trifluoromethyl)piperidin-3-yl)methyl)imidazo[1,2-b][1,2,4]triazin-6-yl)methyl)-1-methyl-1H-pyrazole-5-carboxamide], the IC50 on IL-17A/A is less than 100 nM; on IL-17A/F, 100 to 1000 nM.

For the compound `O=C(N[C@H](c1cn2nc(C[C@H]3C[C@@H](C(F)(F)F)CNC3=O)c(C3CCOCC3)nc2n1)C1CCC(F)(F)CC1)c1ccnn1CCN1CCOCC1` [Compound 378, N—((S)-(4,4-difluorocyclohexyl)(2-(((3R,5R)-2-oxo-5-(trifluoromethyl)piperidin-3-yl)methyl)-3-(tetrahydro-2H-pyran-4-yl)imidazo[1,2-b][1,2,4]triazin-6-yl)methyl)-1-(2-morpholinoethyl)-1H-pyrazole-5-carboxamide], the IC50 on IL-17A/A is less than 100 nM; on IL-17A/F it was more than 1000 nM.

For the compound `CCn1nccc1C(=O)N[C@H](c1cn2nc(C[C@H]3CCCNC3=O)c(C3CCOCC3)nc2n1)C1CCC(F)(F)CC1` [Compound 379], the results for the IC50 at IL-17A/A and at IL-17A/F were less than 100 nM and more than 1000 nM, respectively.

For the compound `CCn1nccc1C(=O)N[C@H](c1cn2nc(C[C@@H]3CCCNC3=O)c(C3CCOCC3)nc2n1)C1CCC(F)(F)CC1` [Compound 380], the figures for the IC50 at IL-17A/A and at IL-17A/F were less than 100 nM and more than 1000 nM, respectively.

As to `CCn1ncnc1C(=O)N[C@H](c1cn2nc(C[C@H]3C[C@@H](C(F)(F)F)CNC3=O)c(C3CCOCC3)nc2n1)[C@H]1CC[C@H](C)CC1` [Compound 383, 1-ethyl-N—((S)-((1r,4S)-4-methylcyclohexyl)(2-(((3R,5R)-2-oxo-5-(trifluoromethyl)piperidin-3-yl)methyl)-3-(tetrahydro-2H-pyran-4-yl)imidazo[1,2-b][1,2,4]triazin-6-yl)methyl)-1H-1,2,4-triazole-5-carboxamide], the IC50 at IL-17A/A was less than 100 nM; at IL-17A/F, 100 to 1000 nM.

With `CCn1ncnc1C(=O)N[C@H](c1cn2nc(C[C@H]3C[C@@H](C(F)(F)F)CNC3=O)c(C3CCOCC3)nc2n1)C(C1CC1)C1CC1` [Compound 385, N—((S)-2,2-dicyclopropyl-1-(2-(((3R,5R)-2-oxo-5-(trifluoromethyl)piperidin-3-yl)methyl)-3-(tetrahydro-2H-pyran-4-yl)imidazo[1,2-b][1,2,4]triazin-6-yl)ethyl)-1-ethyl-1H-1,2,4-triazole-5-carboxamide], the figures for the IC50 on IL-17A/A and on IL-17A/F were less than 100 nM and more than 1000 nM, respectively.

As to `CCn1ncnc1C(=O)N[C@H](c1cn2nc(C[C@H]3C[C@@H](C(F)(F)F)CNC3=O)c(C(C)C)nc2n1)C1CCC(F)(F)CC1` [Compound 386, N—((S)-(4,4-difluorocyclohexyl)(3-isopropyl-2-(((3R,5R)-2-oxo-5-(trifluoromethyl)piperidin-3-yl)methyl)imidazo[1,2-b][1,2,4]triazin-6-yl)methyl)-1-ethyl-1H-1,2,4-triazole-5-carboxamide], the IC50 on IL-17A/A is less than 100 nM; at IL-17A/F, more than 1000 nM.
